Data set [1] relates to Heliothis virescens. Briefly: Sprayed cotton leaf test, mortality of 1st instar larvae after 3 days. On the procedure: (§1) For Heliothis and Spodoptera testing cotton leaves were sprayed in a Berkhard Potter Tower, left to dry for 1 hour and then placed on the top of pots containing twenty 1st instar Heliothis virescens/Spodoptera littoralis larvae. These were stored in a test holding room at 25° C. for 3 days and the test species assessed for mortality. For aphid testing Leaf discs were cut from excised Chinese cabbage leaves and placed on agar in test pots. R2 Myzus persicae were transferred from the culture on radish cotyledons and left overnight. The dried cotyledons were removed, leaving approximately 20-25 aphids on each leaf disc. The pots were sprayed in a Berkhard Potter Tower. Once dry, ventilated lids were placed on the top. These were stored in a Weiss Room at 20° C. for 3 days and the test species assessed for mortality. All tests included a Synperonic NP8 control. […] Any increase in the expected amount of mortality may be attributed to synergism. This is calculated in the following way: Expected mortality from mixture=% mortality of mixture partner A+(100%−% mortality of A)*(% mortality of mixture partner B). The results are set out in Tables I-III.

Data set [2] concerns Spodoptera littoralis. The data set is described as above. Particulars: for Observed % mortality Other ai: 3 days. As to the method: as §1
The subject of data set [3] is Myzus persicae. Briefly: Sprayed Chinese cabbage leaf disc aphid test, mortality after 3 days. Particulars: in Brassica rapa, foliar, 72 h. On the procedure: as §1
The mark [4] stands for this setting: Spodoptera littoralis, in Gossypium hirsutum, 72 h, read-out: Observed % mortality Gamma.
The mark [5] stands for this setting: read-out: Observed % mortality Gamma.
Where [6] appears, read: read-out: Observed % mortality Other.

Where “and” joins values, the source holds several entries; their conditions need not be identical. Equal values may be shown once. Read-outs that look alike come from different tables or passages of the source.

`COC(=O)N(C(=O)N1CO[C@@]2(C(=O)OC)Cc3cc(Cl)ccc3C2=N1)c1ccc(OC(F)(F)F)cc1` [Indoxacarb]: the “Observed % mortality Other ai” value in data set [1] (other ai alone 0.20 ppm) was 26% and 22%; in data set [1] (other ai alone 0.80 ppm), 26% and 46%.

As for `CC1(C)[C@H](C(=O)O[C@H](C#N)c2cccc(Oc3ccccc3)c2)[C@@H]1/C=C(\Cl)C(F)(F)F` [Gamma, (S)-α-cyano-3-phenoxybenzyl (Z)-(1R,3R)-3-(2-chloro-3,3,3-trifluoro-1-propenyl)-2,2-dimethylcyclopropanecarboxylate], the mortality at 0.025 ppm in data set [2] (setting [4]) was 0%. For the same compound, the mortality at 0.05 ppm in data set [2] (setting [4]) amounted to 25%. Besides, the mortality at 0.1 ppm in data set [2] (setting [4]) came to 90%. Further, the “Observed % mortality Gamma” value in data set [1] (Gamma alone 0.25 ppm), in data set [1] (Gamma alone 0.50 ppm) and in data set [1] (Gamma alone 1.00 ppm) was 28% throughout. The mortality at 0.25 ppm in data set [1] (Heliothis virescens, in Gossypium hirsutum, 72 h, read-out: Observed % mortality Gamma, Gamma alone 0.25 ppm) is 32%; in data set [3] (setting [5]) it was 70%. Besides, the mortality at 0.5 ppm in data set [1] (Heliothis virescens, in Gossypium hirsutum, 72 h, read-out: Observed % mortality Gamma, Gamma alone 0.50 ppm) is 32%; in data set [3] (setting [5]), 69%. The mortality at 1 ppm in data set [1] (Heliothis virescens, in Gossypium hirsutum, 72 h, read-out: Observed % mortality Gamma, Gamma alone 1.00 ppm) worked out at 46%; in data set [3] (setting [5]) it was 98%.

For the compound abamectin, the “Observed % mortality Other ai” value in data set [1] (other ai alone 0.25 ppm), in data set [1] (other ai alone 0.50 ppm) and in data set [1] (other ai alone 1.00 ppm) was 0% in each case.

Turning to `CN1COCN(Cc2cnc(Cl)s2)/C1=N\[N+](=O)[O-]` [Thiamethoxam, thiamethoxam], in data set [3] (setting [6]), the mortality at 1.25 ppm was 70%, the mortality at 2.5 ppm is 92% and the mortality at 5 ppm came to 94%.

Turning to emamectin benzoate, the “Observed % mortality Other ai” value in data set [2] (other ai alone 0.0025 ppm) was 0%; in data set [2] (other ai alone 0.005 ppm), 6%; in data set [2] (other ai alone 0.01 ppm) it was 0%; in data set [1] (other ai alone 0.13 ppm), 97% and 96%; in data set [1] (other ai alone 0.25 ppm) it was 97% and 96% and 99%; in data set [1] (other ai alone 0.50 ppm), 96% and 99%.

For the compound `CCOP(=S)(OCC)Oc1nc(Cl)c(Cl)cc1Cl` [Chlorpyrifos, chlorpyrifos], the mortality at 2.5 ppm in data set [1] (Heliothis virescens, in Gossypium hirsutum, 72 h, read-out: Observed % mortality Other ai, other ai alone 2.50 ppm) turned out to be 36%. Further, the mortality at 5 ppm in data set [1] (Heliothis virescens, in Gossypium hirsutum, 72 h, read-out: Observed % mortality Other ai, other ai alone 5.00 ppm) was 29%. Also, the mortality at 10 ppm in data set [1] (Heliothis virescens, in Gossypium hirsutum, 72 h, read-out: Observed % mortality Other ai, other ai alone 10.00 ppm) amounted to 44%.

For `CC1(C)[C@H](C(=O)O[C@H](C#N)c2cccc(Oc3ccccc3)c2)[C@@H]1/C=C(\Cl)C(F)(F)F` (racemic) [Lambda-cyhalothrin, lambda-cyhalothrin], the mortality at 0.25 ppm stood at 46% in data set [1] (Heliothis virescens, in Gossypium hirsutum, 72 h, read-out: Observed % mortality Other ai, other ai alone 0.25 ppm) and 4% in data set [3] (setting [6]). Further, the mortality at 0.5 ppm in data set [1] (Heliothis virescens, in Gossypium hirsutum, 72 h, read-out: Observed % mortality Other ai, other ai alone 0.50 ppm) is 50%; in data set [3] (setting [6]), 14%. Also, the mortality at 1 ppm in data set [1] (Heliothis virescens, in Gossypium hirsutum, 72 h, read-out: Observed % mortality Other ai, other ai alone 1.00 ppm) is 46%. The “Observed % mortality Other ai” value in data set [1] (other ai alone 0.50 ppm) and in data set [1] (other ai alone 1.00 ppm) was 52% each time. Besides, the mortality at 0.125 ppm in data set [3] (setting [6]) came out at 10%.

Broadly, the mortality is the share of the test organisms that died.

For the origin of these results see patent US8852618B2, “Insecticidal mixture containing gamma-cyhalothrin” (Syngenta Limited, priority 2001, dated 2014).
